pIC50: −log10 of the molar value.
Molecular target: T1, Aurora kinase A (Homo sapiens, UniProt O14965)
T1 sequence (O14965 whole entry): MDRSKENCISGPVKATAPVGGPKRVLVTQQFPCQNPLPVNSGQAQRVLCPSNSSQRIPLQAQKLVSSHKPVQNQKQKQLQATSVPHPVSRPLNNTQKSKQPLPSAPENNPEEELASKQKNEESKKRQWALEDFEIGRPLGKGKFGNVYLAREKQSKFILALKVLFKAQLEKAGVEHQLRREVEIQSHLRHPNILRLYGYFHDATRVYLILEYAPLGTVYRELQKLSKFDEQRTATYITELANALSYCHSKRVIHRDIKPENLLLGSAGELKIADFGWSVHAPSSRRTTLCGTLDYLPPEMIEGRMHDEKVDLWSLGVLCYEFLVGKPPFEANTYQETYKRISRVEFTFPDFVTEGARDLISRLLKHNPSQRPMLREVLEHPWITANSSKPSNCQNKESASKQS
Assay: Aurora Kinase SPA Assay
Experimental: The biochemical activity of compounds was determined by incubation with Aurora A and substrates in the presence ATP/[gamma-33P] ATP. After incubation, the reaction was stopped and the phosphorylated substrate was separated from nonincorporated radioactive ATP using SPA beads (Amersham Pharmacia Biotech), counted using TopCount (Packard) to measure substrate-incorporated phosphate.

Row | pIC50 | pIC50 (pH 7, 22 °C) | SMILES
1 | 5.91 |  | COCCNC(=O)c1cccc(Nc2ncc(Br)s2)c1 [3-[(5-bromo-1,3-thiazol-2-yl)amino]-N-(2-methoxyethyl)benzamide]
2 |  | 5.24 | CCOC(=O)c1ccc(Nc2ncc(Br)s2)cc1 [ethyl 4-[(5-bromo-1,3-thiazol-2-yl)amino]benzoate]
3 |  | 6.22 | Nc1ccc(Nc2ncc(Br)s2)cc1 [1-N-(5-bromo-1,3-thiazol-2-yl)benzene-1,4-diamine]
4 |  | 6.30 | Fc1ccc(Nc2ncc(I)s2)cc1 [N-(4-fluorophenyl)-5-iodo-1,3-thiazol-2-amine]
5 |  | 5.62 | FC(F)(F)c1ccc(Nc2ncc(Br)s2)cc1 [5-bromo-N-[4-(trifluoromethyl)phenyl]-1,3-thiazol-2-amine]
6 | 6.30 |  | CSc1cccc(Nc2ncc(Br)s2)c1 [5-bromo-N-[3-(methylsulfanyl)phenyl]-1,3-thiazol-2-amine]
7 |  | 5.55 | Cc1ccc(Nc2ncc(Br)s2)cc1 [5-bromo-N-(4-methylphenyl)-1,3-thiazol-2-amine]
8 |  | 5.83 | O=C(NCCO)c1ccc(Nc2ncc(Br)s2)cc1 [4-[(5-bromo-1,3-thiazol-2-yl)amino]-N-(2-hydroxyethyl)benzamide]
9 |  | < 5.00 | Fc1ccc(Nc2nc(Br)cs2)cc1 [4-bromo-N-(4-fluorophenyl)-1,3-thiazol-2-amine]
10 |  | 5.77 | CC(=O)c1ccc(Nc2ncc(Br)s2)cc1 [1-{4-[(5-bromo-1,3-thiazol-2-yl)amino]phenyl}ethan-1-one]
11 | < 5.00 |  | Fc1ccc(Nc2ncc(Br)s2)c(F)c1 [5-bromo-N-(2,4-difluorophenyl)-1,3-thiazol-2-amine]
12 |  | 4.89 | O=[N+]([O-])c1ccc(Nc2ncc(Br)s2)cc1 [5-bromo-N-(4-nitrophenyl)-1,3-thiazol-2-amine]
13 | 5.57 |  | COc1ccccc1Nc1ncc(Br)s1 [5-bromo-N-(2-methoxyphenyl)-1,3-thiazol-2-amine]
14 |  | 5.85 | Brc1cnc(Nc2ccc(Oc3ccccc3)cc2)s1 [5-bromo-N-(4-phenoxyphenyl)-1,3-thiazol-2-amine]
15 | 5.70 |  | Brc1cnc(Nc2ccccn2)s1 [5-bromo-N-(pyridin-2-yl)-1,3-thiazol-2-amine]
16 | 5.26 |  | Fc1ccccc1Nc1ncc(Br)s1 [5-bromo-N-(2-fluorophenyl)-1,3-thiazol-2-amine]
17 |  | 5.77 | COc1ccc(Nc2ncc(Br)s2)cc1 [5-bromo-N-(4-methoxyphenyl)-1,3-thiazol-2-amine]
18 | < 5.00 |  | FC(F)(F)c1ccccc1Nc1ncc(Br)s1 [5-bromo-N-[2-(trifluoromethyl)phenyl]-1,3-thiazol-2-amine]
19 |  | 5.54 | Brc1ccc(Nc2ncc(Br)s2)cc1 [5-bromo-N-(4-bromophenyl)-1,3-thiazol-2-amine]
20 | < 5.00 |  | Brc1cnc(NCCc2ccccc2)s1 [5-bromo-N-(2-phenylethyl)-1,3-thiazol-2-amine]
21 |  | 5.96 | Brc1cnc(Nc2ccccc2)s1 [5-bromo-N-phenyl-1,3-thiazol-2-amine]

Row | pIC50 | pIC50 (pH 7, 22 °C) | SMILES
22 | < 5.00 |  | Nc1ncc(Br)s1 [5-bromo-1,3-thiazol-2-amine]
23 | < 5.00 |  | CC(=O)Nc1ncc(Br)s1 [N-(5-bromo-1,3-thiazol-2-yl)acetamide]
24 | 5.11 |  | Brc1cnc(Nc2ccncc2)s1 [5-bromo-N-(pyridin-4-yl)-1,3-thiazol-2-amine]
25 | 6.13 |  | CNC(=O)c1cccc(Nc2ncc(Br)s2)c1 [3-[(5-bromo-1,3-thiazol-2-yl)amino]-N-methylbenzamide]
26 |  | 5.96 | Fc1ccc(Nc2ncc(Cl)s2)cc1 [5-chloro-N-(4-fluorophenyl)-1,3-thiazol-2-amine]
27 | 5.30 |  | Brc1cnc(Nc2cccc3ccccc23)s1 [5-bromo-N-(naphthalen-1-yl)-1,3-thiazol-2-amine]
28 | 5.42 |  | CN1CCN(Cc2ccc(Nc3ncc(C#N)s3)nc2)CC1 [2-({5-[(4-methylpiperazin-1-yl)methyl]pyridin-2-yl}amino)-1,3-thiazole-5-carbonitrile]
29 |  | < 5.00 | Fc1ccc(Nc2nccs2)cc1 [N-(4-fluorophenyl)-1,3-thiazol-2-amine]
30 |  | 5.52 | Clc1ccc(Nc2ncc(Br)s2)cc1 [5-bromo-N-(4-chlorophenyl)-1,3-thiazol-2-amine]
31 |  | 4.76 | FC(F)(F)Oc1ccc(Nc2ncc(Br)s2)cc1 [5-bromo-N-[4-(trifluoromethoxy)phenyl]-1,3-thiazol-2-amine]
32 |  | 6.29 | Oc1ccc(Nc2ncc(Br)s2)cc1 [4-[(5-bromo-1,3-thiazol-2-yl)amino]phenol]
33 | < 5.00 |  | O=C(Nc1ccccc1)Nc1ncc(Br)s1 [3-(5-bromo-1,3-thiazol-2-yl)-1-phenylurea]
34 | 5.85 |  | N#Cc1cnc(Nc2ccc(CN3CCOCC3)cn2)s1 [2-{[5-(morpholin-4-ylmethyl)pyridin-2-yl]amino}-1,3-thiazole-5-carbonitrile]
35 | 5.60 |  | N#Cc1cnc(Nc2ccccn2)s1 [ACS Chemical Biology 3180 Compound 63]
36 | 5.27 |  | O=C(NCCN1CCCC1)c1ccc(Nc2ncc(Br)s2)cc1 [4-[(5-bromo-1,3-thiazol-2-yl)amino]-N-[2-(pyrrolidin-1-yl)ethyl]benzamide]
37 |  | 5.04 | O=C(Nc1ccc(Nc2ncc(Br)s2)cc1)c1ccccc1 [N-{4-[(5-bromo-1,3-thiazol-2-yl)amino]phenyl}benzamide]
38 | 5.96 |  | Cc1cccc(Nc2ncc(Br)s2)c1 [5-bromo-N-(3-methylphenyl)-1,3-thiazol-2-amine]
39 | 6.05 |  | COc1cccc(Nc2ncc(Br)s2)c1 [5-bromo-N-(3-methoxyphenyl)-1,3-thiazol-2-amine]
40 | 5.65 |  | CCOC(=O)c1cccc(Nc2ncc(Br)s2)c1 [ethyl 3-[(5-bromo-1,3-thiazol-2-yl)amino]benzoate]
41 |  | 5.68 | N#Cc1ccc(Nc2ncc(Br)s2)cc1 [4-[(5-bromo-1,3-thiazol-2-yl)amino]benzonitrile]
42 | < 5.00 |  | Clc1cc(Cl)cc(Nc2ncc(Br)s2)c1 [5-bromo-N-(3,5-dichlorophenyl)-1,3-thiazol-2-amine]

Row | pIC50 | pIC50 (pH 7, 22 °C) | SMILES
43 | < 5.00 |  | FC(F)(F)c1cc(Nc2ncc(Br)s2)cc(C(F)(F)F)c1 [N-[3,5-bis(trifluoromethyl)phenyl]-5-bromo-1,3-thiazol-2-amine]
44 | 5.03 |  | Fc1cccc(Nc2ncc(Br)s2)c1 [5-bromo-N-(3-fluorophenyl)-1,3-thiazol-2-amine]
45 | 5.64 |  | O=C(NCCN1CCOCC1)c1ccc(Nc2ncc(Br)s2)cc1 [4-[(5-bromo-1,3-thiazol-2-yl)amino]-N-[2-(morpholin-4-yl)ethyl]benzamide]
46 | 5.36 |  | CCN1CCN(Cc2ccc(Nc3ncc(C#N)s3)nc2)CC1 [2-({5-[(4-ethylpiperazin-1-yl)methyl]pyridin-2-yl}amino)-1,3-thiazole-5-carbonitrile]
47 |  | 6.44 | CC(=O)Nc1ccc(Nc2ncc(Br)s2)cc1 [N-{4-[(5-bromo-1,3-thiazol-2-yl)amino]phenyl}acetamide]
48 | < 5.00 |  | Cc1cc(C)cc(Nc2ncc(Br)s2)c1 [5-bromo-N-(3,5-dimethylphenyl)-1,3-thiazol-2-amine]
49 |  | < 5.00 | Brc1cnc(Nc2ccc(I)cc2)s1 [5-bromo-N-(4-iodophenyl)-1,3-thiazol-2-amine]
50 |  | < 5.00 | CN(c1ccc(F)cc1)c1ncc(Br)s1 [5-bromo-N-(4-fluorophenyl)-N-methyl-1,3-thiazol-2-amine]
51 |  | 6.01 | COCCN(C)C(=O)c1ccc(Nc2ncc(Br)s2)cc1 [4-[(5-bromo-1,3-thiazol-2-yl)amino]-N-(2-methoxyethyl)-N-methylbenzamide]
52 | 5.27 |  | N#Cc1cnc(Nc2ccc(CN3CCN(CCO)CC3)cn2)s1 [2-[(5-{[4-(2-hydroxyethyl)piperazin-1-yl]methyl}pyridin-2-yl)amino]-1,3-thiazole-5-carbonitrile]
53 |  | 6.48 | COCC(C)NC(=O)c1ccc(Nc2ncc(Br)s2)cc1 (stereo not drawn) [4-[(5-bromo-1,3-thiazol-2-yl)amino]-N-(1-methoxypropan-2-yl)benzamide]
54 |  | 6.05 | Brc1cnc(Nc2ccc(Oc3ccncc3)cc2)s1 [5-bromo-N-[4-(pyridin-4-yloxy)phenyl]-1,3-thiazol-2-amine]
55 | 5.82 |  | N#Cc1cccc(Nc2ncc(Br)s2)c1 [3-[(5-bromo-1,3-thiazol-2-yl)amino]benzonitrile]
56 | 6.36 |  | O=C(O)c1cccc(Nc2ncc(Br)s2)c1 [3-[(5-bromo-1,3-thiazol-2-yl)amino]benzoic acid]
57 | 5.52 |  | Cc1ccccc1Nc1ncc(Br)s1 [5-bromo-N-(2-methylphenyl)-1,3-thiazol-2-amine]
58 | < 5.00 |  | Fc1ccc(F)c(Nc2ncc(Br)s2)c1 [5-bromo-N-(2,5-difluorophenyl)-1,3-thiazol-2-amine]
59 | 5.28 |  | CN(C)CCNC(=O)c1ccc(Nc2ncc(Br)s2)cc1 [4-[(5-bromo-1,3-thiazol-2-yl)amino]-N-[2-(dimethylamino)ethyl]benzamide]
60 | 5.00 |  | FC(F)(F)c1cccc(Nc2ncc(Br)s2)c1 [5-bromo-N-[3-(trifluoromethyl)phenyl]-1,3-thiazol-2-amine]
61 | < 5.00 |  | Clc1ccc(Nc2ncc(Br)s2)cc1Cl [5-bromo-N-(3,4-dichlorophenyl)-1,3-thiazol-2-amine]
62 |  | 7.01 | COCCNC(=O)c1ccc(Nc2ncc(Br)s2)cc1 [4-[(5-bromo-1,3-thiazol-2-yl)amino]-N-(2-methoxyethyl)benzamide]
63 | 6.06 |  | CNC(=O)N1CCN(Cc2ccc(Nc3ncc(C#N)s3)nc2)CC1 [4-({6-[(5-cyano-1,3-thiazol-2-yl)amino]pyridin-3-yl}methyl)-N-methylpiperazine-1-carboxamide]
